Assay results taken from PMC12155096 (International Journal of Molecular Sciences, 2025).
Like-named read-outs stand apart in the source and are kept apart here.

Tests used:
human CYP1A2 = molecular target: T1, human CYP1A2 (Homo sapiens, UniProt P05177); test: biochemical
T1 sequence (P05177 1-516): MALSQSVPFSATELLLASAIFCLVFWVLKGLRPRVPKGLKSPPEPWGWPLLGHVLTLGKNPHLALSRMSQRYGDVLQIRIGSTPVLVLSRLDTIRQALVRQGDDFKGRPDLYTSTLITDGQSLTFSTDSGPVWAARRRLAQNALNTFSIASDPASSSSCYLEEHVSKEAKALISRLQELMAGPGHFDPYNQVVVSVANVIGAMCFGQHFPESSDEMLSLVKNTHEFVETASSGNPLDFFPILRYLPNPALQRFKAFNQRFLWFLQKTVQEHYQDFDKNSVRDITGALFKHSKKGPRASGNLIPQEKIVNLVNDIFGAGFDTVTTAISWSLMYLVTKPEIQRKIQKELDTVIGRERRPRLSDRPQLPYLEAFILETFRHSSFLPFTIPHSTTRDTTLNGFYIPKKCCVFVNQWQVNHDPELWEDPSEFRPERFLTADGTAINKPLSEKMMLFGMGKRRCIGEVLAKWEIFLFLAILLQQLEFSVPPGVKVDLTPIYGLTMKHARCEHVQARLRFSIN

human CYP2C19 [1] = molecular target: T2, human CYP2C19 (Homo sapiens, UniProt P33261); test: biochemical
human CYP2D6 = human CYP2D6 (Homo sapiens, UniProt P10635)
CYP3A4 = CYP3A4 (Homo sapiens, UniProt P08684); test: biochemical
human CYP2C9 = human CYP2C9 (Homo sapiens, UniProt P11712); test: biochemical
human CYP2C19 [2] = molecular target: T2, human CYP2C19
[3] = CYP1A2 AC50 (half-maximal activity concentration)
[4] = CYP2C19 AC50 (half-maximal activity concentration)
[5] = CYP3A4 AC50 (half-maximal activity concentration)
[6] = CYP2C9 AC50 (half-maximal activity concentration)

T2 sequence (P33261 whole entry): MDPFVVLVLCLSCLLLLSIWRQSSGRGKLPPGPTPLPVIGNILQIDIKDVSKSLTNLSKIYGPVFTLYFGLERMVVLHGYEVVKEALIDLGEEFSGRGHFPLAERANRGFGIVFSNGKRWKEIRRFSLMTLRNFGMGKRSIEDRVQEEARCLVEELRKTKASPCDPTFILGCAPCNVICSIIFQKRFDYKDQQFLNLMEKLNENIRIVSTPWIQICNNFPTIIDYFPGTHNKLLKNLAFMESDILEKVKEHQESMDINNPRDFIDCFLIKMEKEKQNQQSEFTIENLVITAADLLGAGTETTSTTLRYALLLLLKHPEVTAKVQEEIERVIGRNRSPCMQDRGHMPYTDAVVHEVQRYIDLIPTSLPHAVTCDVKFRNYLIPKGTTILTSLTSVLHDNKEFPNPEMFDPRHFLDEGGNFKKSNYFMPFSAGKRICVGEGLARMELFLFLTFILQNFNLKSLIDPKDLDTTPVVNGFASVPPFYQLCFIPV
Sequence of CYP3A4 (P08684 whole entry): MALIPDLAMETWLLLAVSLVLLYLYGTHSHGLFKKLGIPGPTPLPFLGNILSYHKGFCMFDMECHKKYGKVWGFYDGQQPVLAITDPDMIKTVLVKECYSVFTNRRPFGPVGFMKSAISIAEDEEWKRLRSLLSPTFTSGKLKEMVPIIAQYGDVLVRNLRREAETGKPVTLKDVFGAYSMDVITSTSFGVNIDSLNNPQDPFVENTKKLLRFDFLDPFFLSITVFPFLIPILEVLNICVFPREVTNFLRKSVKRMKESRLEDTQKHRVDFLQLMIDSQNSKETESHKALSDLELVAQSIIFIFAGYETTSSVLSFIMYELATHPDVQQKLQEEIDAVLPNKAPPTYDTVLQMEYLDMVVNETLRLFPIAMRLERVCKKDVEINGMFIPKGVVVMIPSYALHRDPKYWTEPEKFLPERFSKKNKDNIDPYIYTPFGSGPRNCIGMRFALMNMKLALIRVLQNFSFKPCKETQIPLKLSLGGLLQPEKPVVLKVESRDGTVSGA
Sequence of human CYP2D6 (P10635 whole entry): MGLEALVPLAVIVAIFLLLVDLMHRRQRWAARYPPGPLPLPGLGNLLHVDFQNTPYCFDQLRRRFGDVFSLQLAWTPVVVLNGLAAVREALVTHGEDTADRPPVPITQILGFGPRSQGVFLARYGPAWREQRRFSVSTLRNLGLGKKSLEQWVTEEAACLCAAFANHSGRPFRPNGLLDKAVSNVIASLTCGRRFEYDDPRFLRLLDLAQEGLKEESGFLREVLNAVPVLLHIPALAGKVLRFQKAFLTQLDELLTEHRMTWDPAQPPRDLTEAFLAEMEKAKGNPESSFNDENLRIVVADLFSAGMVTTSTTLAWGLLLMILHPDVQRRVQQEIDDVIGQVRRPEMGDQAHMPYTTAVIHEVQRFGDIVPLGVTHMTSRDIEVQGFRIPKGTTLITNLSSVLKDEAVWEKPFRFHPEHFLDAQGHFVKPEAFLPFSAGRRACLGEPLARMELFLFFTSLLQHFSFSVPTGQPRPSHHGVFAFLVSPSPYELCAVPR
Sequence of human CYP2C9 (P11712 whole entry): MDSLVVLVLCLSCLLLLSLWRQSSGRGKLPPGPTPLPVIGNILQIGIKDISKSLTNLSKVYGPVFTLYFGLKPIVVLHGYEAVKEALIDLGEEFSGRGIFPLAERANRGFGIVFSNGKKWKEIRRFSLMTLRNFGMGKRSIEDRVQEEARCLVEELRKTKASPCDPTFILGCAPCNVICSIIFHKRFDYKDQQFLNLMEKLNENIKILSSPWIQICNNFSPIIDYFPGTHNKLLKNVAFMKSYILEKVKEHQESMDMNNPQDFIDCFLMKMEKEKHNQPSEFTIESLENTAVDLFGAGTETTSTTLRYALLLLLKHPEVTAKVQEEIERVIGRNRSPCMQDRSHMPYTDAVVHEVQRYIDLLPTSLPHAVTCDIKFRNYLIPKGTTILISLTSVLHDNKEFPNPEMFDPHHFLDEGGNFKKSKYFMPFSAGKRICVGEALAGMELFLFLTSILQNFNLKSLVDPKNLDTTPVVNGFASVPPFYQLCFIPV

| AC50 (human CYP1A2) [µM] | AC50 (human CYP2C19 [1]) [µM] | AC50 (CYP3A4) [µM] | AC50 (human CYP2C9) [µM] | Compound | AC50 (human CYP1A2; [3]) [µM] | AC50 (human CYP2C19 [1]; [4]) [µM] | CYP2D6 AC50 (half-maximal activity concentration) (human CYP2D6) | AC50 (CYP3A4; [5]) [µM] | AC50 (human CYP2C9; [6]) [µM] | CYP2C19 AC50 (half-maximal activity concentration) (human CYP2C19 [2]) |
| --- | --- | --- | --- | --- | --- | --- | --- | --- | --- | --- |
|  |  |  |  | Cc1c(C)c([N+](=O)[O-])c(C(C)(C)C)c([N+](=O)[O-])c1C | 17.5 | 22.8 | Inactive | 12.2 | 51.7 |  |
|  |  |  |  | O=[N+]([O-])c1cc(C(F)(F)F)cc([N+](=O)[O-])c1Cl | 64.7 | 56.7 | Inconclusive inhibitor | 49.2 | 18 |  |
|  |  |  |  | N#CCCC(Br)(C#N)CBr (stereo not shown) [1,2-Dibromo-2,4-dicyanobutane] | 14.6 | 11.5 | Inconclusive inhibitor | 9.92 | 8.43 |  |
|  |  |  |  | c1cnc2c(c1)ccc1cccnc12 [1,10-Phenanthroline] | 11.7 | 11.9 | Inconclusive inhibitor | 69.5 | 4.65 |  |
|  |  |  |  | O=[N+]([O-])c1cccc2ccccc12 [1-Nitronaphthalene] | 2.96 | 59.8 | Inactive | 15.6 | 31.2 |  |
| 35.7 ± 4.11 | 30.5 ± 10 | 2.69 ± 0.56 | 35.6 | CCCCOC(=O)COc1ccc(Cl)cc1Cl [2,4-D 1-butyl ester] |  |  | Inactive |  |  |  |
|  |  |  |  | CC(C)OC(=O)COc1ccc(Cl)cc1Cl [2,4-D isopropyl ester] | 13.6 | 15.5 | Inconclusive inhibitor | 7.02 | 35 |  |
|  |  |  |  | CCCCCCC(C=O)=Cc1ccccc1 [2-Benzylideneoctanal] | 13.8 | 25.6 | Inactive | 7.81 | 31.1 |  |
|  |  |  |  | O=[N+]([O-])c1ccccc1-c1ccccc1 [2-Nitro-1,1'-biphenyl] | 1.66 | 30.4 | Inactive | 34.3 | 22.6 |  |
| 17.1 | 13.5 | 7.51 | 30.6 | O=C(OCCc1ccccc1)c1ccccc1 [2-Phenylethyl benzoate] |  |  | Inconclusive inhibitor |  |  |  |
|  |  |  |  | Nc1cc(Cl)cc(Cl)c1 [3,5-Dichloroaniline] | 30.7 | 17.7 | Inactive | 43.2 | 74.5 |  |
|  |  |  |  | O=C(C=Cc1ccccc1)OCC=Cc1ccccc1 [3-Phenyl-2-propen-1-yl 3-phenylacrylate] | 25.3 | 31.8 | Inactive | 24.9 | 29.4 |  |
|  |  |  |  | Brc1ccc(Oc2ccc(Br)cc2)cc1 [4,4'-Dibromodiphenyl ether] | 18.8 | 3.02 | Inactive | 28.4 | 24.6 |  |
|  |  |  |  | O=C(c1ccc(Cl)cc1)c1ccc(Cl)cc1 [4,4'-Dichlorobenzophenone] | 2.34 | 1.67 | Inactive | 11 | 6.1 |  |
| 3.84 | 14.7 | 35.6 | 50 | O=C(c1ccccc1)c1ccc(Cl)cc1 [4-Chlorobenzophenone] |  |  | Inconclusive inhibitor |  |  |  |
|  |  |  |  | O=C(/C=C/c1ccccc1)OCc1ccccc1 [Benzyl cinnamate] | 7.8 | 13.6 | Inactive | 21.5 | 12.4 |  |

| AC50 (human CYP1A2) [µM] | AC50 (human CYP2C19 [1]) [µM] | AC50 (CYP3A4) [µM] | AC50 (human CYP2C9) [µM] | Compound | AC50 (human CYP1A2; [3]) [µM] | AC50 (human CYP2C19 [1]; [4]) [µM] | CYP2D6 AC50 (half-maximal activity concentration) (human CYP2D6) | AC50 (CYP3A4; [5]) [µM] | AC50 (human CYP2C9; [6]) [µM] | CYP2C19 AC50 (half-maximal activity concentration) (human CYP2C19 [2]) |
| --- | --- | --- | --- | --- | --- | --- | --- | --- | --- | --- |
|  |  |  |  | O=[N+]([O-])C(Br)(CO)CO [Bronopol] | 14.2 | 5.81 | Inactive | 5.19 | 4.61 |  |
|  |  |  |  | CC(C)N(Cc1ccccc1)C(=O)C(C)(C)C [Butam] | 32.6 | 15.1 | Inactive | 9.61 | 34.3 |  |
|  |  |  |  | C[Si](Cl)(c1ccccc1)c1ccccc1 [Chloro(methyl)diphenylsilane] | 32.2 | 2.26 | Inconclusive inhibitor | 23.4 | 3.53 |  |
|  |  |  |  | CCOCCOC(=O)C=Cc1ccc(OC)cc1 [Cinoxate] | 7.48 | 29.2 | Inactive | 21.9 | 13.9 |  |
|  |  |  |  | CCOC(=O)NC(C)(C)Cc1ccc(Cl)cc1 [Cloforex] | 7.64 | 5.34 | Inconclusive inhibitor | 14.6 | 15.6 |  |
|  |  |  |  | O=C(c1ccccc1)C1CCCCC1 [Cyclohexylphenylketone] | 37.4 | 44.9 | Inactive | 29.2 | 47.5 |  |
| 41.7 | 57.6 | 15.4 | 16.1 | CCCCOC(=O)CCCCC(=O)OCCCC [Dibutyl hexanedioate] |  |  | Inactive |  |  |  |
|  |  |  |  | COC(=O)C(C)Oc1ccc(Oc2ccc(Cl)cc2Cl)cc1 (stereo not shown) [Diclofop-methyl] | 38.5 | 6.41 | Inconclusive | 12.8 | 27.5 |  |
|  |  |  |  | O=C(OCCOCCOC(=O)c1ccccc1)c1ccccc1 [Diethylene glycol dibenzoate] | 8.29 | 34.1 | Inactive | 11.4 | 12.7 |  |
|  |  |  |  | CC(C)OC(=O)c1ccccc1C(=O)OC(C)C [Diisopropyl phthalate] | 3.31 | 53.2 | Inconclusive inhibitor | 31.9 | 50.4 |  |
|  |  |  |  | COC(=O)CCCCCCCCC(=O)OC [Dimethyl decanedioate] | 40.1 | 64.5 | Inactive | 38.8 | 50.5 |  |
|  |  |  |  | CCC(C)c1cc([N+](=O)[O-])cc([N+](=O)[O-])c1O (stereo not shown) [Dinoseb] | 58.1 | 76.8 |  | 33.9 |  |  |
|  |  |  |  | CC(C)(C)c1cc([N+](=O)[O-])cc([N+](=O)[O-])c1O [Dinoterb] | 48 |  | Inconclusive inhibitor | 24.7 | 17.8 | Inconclusive inhibitor |
|  |  |  |  | Oc1c(Br)c(Br)c(Br)c(Br)c1Br [Pentabromophenol] | 57.8 |  | Inactive | 70.2 | 30.1 | Inconclusive |
|  |  |  |  | Oc1c(Cl)c(Cl)c(Cl)c(Cl)c1Cl [Pentachlorophenol] | 67.4 | 52.3 | Inactive | 54.4 |  |  |
| 71 |  | 58.7 | 62.1 | O=C(Oc1ccccc1)c1ccccc1 [Phenyl benzoate] |  |  | Inactive |  |  | Inactive |
